Measured values reported in patent US11266662B2, “Ganaxolone for use in prophylaxis and treatment of postpartum depression” (Marinus Pharmaceuticals, Inc., priority 2018, dated 2022).

Experiments:
[1] = Excretion of radioactivity; settings: all species
[2] = Example 3 Phase 2 study of oral ganaxolone in women with PPD: expected plasma concentrations; format: in vivo, human
Method: Approximately 172 women aged 18 to 48 years with PPD are screened, and approximately 88 subjects are enrolled into a Phase 2 clinical study. The enrolled subjects are assigned to five groups.
In the first group, approximately 8 subjects are titrated to a total daily oral dose of 900 mg ganaxolone per day (administered in three divided doses per day) over 10 days, followed by a taper over 4 days. For this group ganaxolone doses are titrated from 225 mg on Day 1 to a total daily oral dose of 900 mg starting on Day 7. The ganaxolone mean trough plasma concentrations during the Days 8, 9, and 10 are predicted to be about 40 ng/ml, based on PK modelling. Bedtime doses are selected to be higher than the daytime doses, and are expected to yield plasma mean peak concentrations up to 180 ng/ml during the night on Days 8, 9 and 10.
In the third group, approximately 20 subjects receive ganaxolone administered orally at a dose of 675 mg QHS for 28 days, followed by a taper over 4 days. The trough ganaxolone levels are expected to be below 40 ng/ml.
In the fourth group, approximately 20 subjects receive orally, on the first 2 days, ganaxolone capsules 675 mg at dinner time and 675 mg at bedtime (for a total of 1,350 mg per day on the first 2 days), followed by 26 days of ganaxolone capsules 1,125 mg at dinner time (high fat diet), and a taper over 4 days. […]

For `CC(=O)[C@H]1CC[C@H]2[C@@H]3CC[C@H]4C[C@](C)(O)CC[C@]4(C)[C@H]3CC[C@]12C` [ganaxolone, 3α-hydroxy-3β-methyl-5α-pregnan-20-one], the “Excreted radioactivity via faeces” value [1] was > 70%, the “Expected plasma mean peak concentrations during the night” value ([2]; first group, Days 8, 9 and 10) was “up to 180 ng/ml” and the “Expected trough ganaxolone levels” value ([2]; third group: 675 mg QHS orally for 28 days) was “below 40 ng/ml”.
